Experimental data published in PMC10021052, “Novel multivalent S100A8 inhibitory peptides attenuate tumor progression and metastasis by inhibiting the TLR4-dependent pathway” (Cancer Gene Therapy, 2023).

Experiments:
Balb nu/nu mice = assay: Toxicity: biochemical, body weight and hematological tests; type: in vivo, mouse; conditions: Supplementary Table 1
Excerpt: We then examined the effect of divalent peptide3A5 on tumor growth in vivo.

S100A8-TLR4/MD-2 complex = assay: Competitive inhibition of S100A8-TLR4/MD-2 binding (ELISA, S100A8 immobilized; also immunoprecipitation); design: species or system human; conditions: ELISA, peptide3A5 vs peptide #3 (Fig. 3B); divalent vs monomer (Fig. 4A)
Experimental: S100A8 recombinant protein was purified as previously described. These proteins were immobilized on Maxisorp plates (Thermo Fisher Scientific, Waltham, MA, USA), followed by blocking with protein-free blocking buffer (Thermo Fisher Scientific). TLR4/MD-2 recombinant proteins with various concentrations of candidate peptides were then added to the indicated S100A8-immobilized ELISA plates for 2 h. The plates were washed, incubated with anti-TLR4 antibody, and HRP-conjugated secondary antibody, followed by the addition of substrate. The reaction was stopped by addition a 2N H2SO4 solution. Absorbance OD450/OD650 was measured using a microplate reader (Thermo Fisher Scientific). Maxisorp plates were also used for peptide coating. After blocking with protein-free blocking buffer, the coated plates were washed, and TLR4/MD-2 recombinant protein (2 µg/ml) was added to each well. The plates were incubated with a TLR4 antibody followed by horseradish peroxidase (HRP)-labeled anti-rabbit IgG. For detection of IL8 and VEGF in culture supernatants, SW480 cells were pretreated with the indicated peptides, and followed by stimulation with S100A8 for 24 h. The amount of interleukin-8 (IL-8) or VEGF in the supernatants were analyzed by ELISA kits (R&D Systems, Mineapolis, MN) according to the manufacturer’s instructions.
Fig. 2 Identification of S100A8 binding sites to human TLR4/MD-2. […] TLR4/MD-2 recombinant proteins were immobilized to the ELISA plate. After blocking, a full length or deletion mutant of S100A8 was added to the plate. The more detailed methods are described in Materials and Methods. […] B A series of overlapping S100A8 synthetic peptides. The TLR4/MD-2 recombinant proteins were added to each well of peptide immobilized plates. The affinity to TLR4/MD-2 was determined. Data are shown as mean ± SD. C The competitive activity was determined using ELISA. Data are shown as mean ± SD. D The TLR4/MD-2 was mixed with S100A8 with/without the indicated peptides, and immunoprecipitated using an anti-TLR4 antibody. TLR4 or S100A8 was visualized. Similar results were obtained in three independent experiments. […] Total RNAs from SW480 cells with/without treatment of the peptide candidates were extracted and qPCR analysis was performed using relevant primer sets and SYBR green. Relative expression levels were compared. […] TEXT PRINTED IN THE PICTURE: (A) Full length: TLR4/MD-2 binding: + | (A) S100A8-ΔC: TLR4/MD-2 binding: − | (A) S100A8-N: TLR4/MD-2 binding: −
Fig. 4 Improvement of competitive inhibition activity by divalent peptide3A5. A The binding capacity was measured at the indicated concentration using an ELISA-based assay. Similar results were obtained in three independent experiments. B SW480 cells were pretreated with 2.5 µM of divalent peptide3A5, and then stimulated with human S100A8 recombinant protein. After 30 min, cell lysates were subjected to western blotting using the indicated antibody. The divalent peptide#3 or peptide3A5 reduced the expression of S100A8-mediated IL-8 (C) and VEGF (D) induction. Total RNAs from SW480 cells with/without treatment of the peptide candidates were extracted and qPCR analysis was performed using relevant primer sets and SYBR green. Relative expression levels were compared. Peptide #3 suppresses S100A8-mediated IL-8(E) and VEGF (F) secretion in SW480 cells.

CD8+ cells = assay: Intratumoral infiltrating CD8+ cells; type: in vivo, mouse; conditions: Supplementary Fig. 3A
Experimental: (§1) To immunostain tumor vasculatures, the cryo sections (6 µm) obtained from frozen primary tumors, were incubated with anti-CD31 (BD Pharmingen, Cat No. 550274), and/or anti-α-SMA-Cy3 (Sigma-Aldrich, Cat No. C6198) followed by AlexaFlour 488-conjugated rat IgG secondary antibodies (Thermo Fisher Scientific) were used to visualize the signals by a confocal microscopy (LSM-710; Carl Zeiss). DAPI staining was used for nuclear staining. For immunohistochemistry, the paraffin-embedded sections were cut 4 µm thick and then deparaffinized, rehydrated and then treated for antigen retrieval. The sections were incubated with the indicated antibody overnight, followed by incubation with ImmPRESS HRP Reagent (Vector, Newark, CA). ImmPACT DAB (Vector) was used for visualization of the signals. The images were captured by BZ-X800 (Keyence, Osaka, Japan).

SW480 cells = assay: qPCR, S100A8-mediated IL-8 and VEGF mRNA induction in SW480 cells; type: cell-based, human; conditions: qPCR, normalized to β-actin
C57BL6 mice = assay: Toxicity in C57BL6 mice; type: in vivo, mouse; conditions: Supplementary Table 1
Excerpt: Because S100A8 inhibitory peptides target S100A8-TLR4/MD-2, which plays a role in innate immunity, the complete functional activities of S100A8 inhibitory peptides are expected to be observed in immunocompetent models. To date, syngeneic models are one of the only options to test physiological interactions between tumors and immune cells. […] LLC cells were identified as non-responders to anti-PD-1/programmed death-ligand 1 (PD-L1) therapy. […] We then examined the effect of divalent peptide3A5 in mouse MC38 colorectal cancer cells used as anti-PD-1 responder cells. We previously confirmed that MC38 endogenously expressed TLR4/MD-2 [8].

[1] = system: tumor vasculature of SW480 xenograft; assay: Tumor vasculature and pericyte coverage (CD31, α-SMA) in SW480 tumors; type: in vivo, Balb nu/nu mice
Experimental: as §1

FQEFAILVIK [Divalent peptide3A5, divalent peptide of peptide3A5 using Fmoc-Lys (Fmoc)-OH to form two branches]
serum ALT (Balb nu/nu mice; 10 mg/kg): normal | serum AST (Balb nu/nu mice; 10 mg/kg): normal | serum LDH (Balb nu/nu mice; 10 mg/kg): normal | body weight (Balb nu/nu mice): no significant difference | hematological test (Balb nu/nu mice): no significant difference | competitive inhibition, potency compared with parent (S100A8-TLR4/MD-2 complex): observed at a lower dose range than the effect of the peptide3A5 monomer | intratumoral infiltrating CD8+ cells, alone (CD8+ cells; LLC tumor-bearing mice): increased | intratumoral infiltrating CD8+ cells, combination with anti-PD-1 (CD8+ cells; combination with anti-PD-1 antibody): increased | S100A8-mediated VEGF induction (mRNA) (SW480 cells): efficiently inhibited | S100A8-mediated IL-8 induction (mRNA) (SW480 cells; *P < 0.05 vs S100A8): efficiently inhibited | toxicity in C57BL6 mice (C57BL6 mice): did not display any toxicity | pericyte coverage (α-SMA/CD31) ([1]; 5 mg/kg or 10 mg/kg): significantly increased the pericyte coverage | tumor vasculature ([1]; anti-CD31 staining): significantly diminished
